Results: the NIST ThermoML archive (doi:10.1021/je800579j)

Test: refractive index (Na D-line) (dimensionless); xn = mol fraction of the nth substance listed
Settings: Liquid, Standard Abbe refractometry

Cc1cc(C)cc(C)c1 [1,3,5-trimethylbenzene] + C1COCCO1
refractive index
Settings | 288.15 K | 293.15 K | 298.15 K | 303.15 K | 308.15 K | 313.15 K | 318.15 K
x2 = 0 | 1.502 | 1.4995 | 1.4969 | 1.4944 | 1.4918 | 1.4893 | 1.4868
x2 = 0.0696 | 1.4969 | 1.4942 | 1.4915 | 1.4888 | 1.4861 | 1.4834 | 1.4807
x2 = 0.1408 | 1.4916 | 1.4889 | 1.4862 | 1.4835 | 1.4807 | 1.4779 | 1.4751
x2 = 0.2098 | 1.4865 | 1.4838 | 1.4811 | 1.4784 | 1.4756 | 1.4729 | 1.4701
x2 = 0.28 | 1.4812 | 1.4786 | 1.4758 | 1.4731 | 1.4703 | 1.4676 | 1.4648
x2 = 0.3558 | 1.4755 | 1.4729 | 1.4702 | 1.4675 | 1.4648 | 1.4621 | 1.4593
x2 = 0.4276 | 1.4701 | 1.4675 | 1.4648 | 1.4622 | 1.4595 | 1.4568 | 1.4542
x2 = 0.5066 | 1.4641 | 1.4615 | 1.4589 | 1.4563 | 1.4537 | 1.451 | 1.4484
x2 = 0.5801 | 1.4584 | 1.4558 | 1.4532 | 1.4506 | 1.448 | 1.4454 | 1.4428
x2 = 0.6548 | 1.4525 | 1.45 | 1.4474 | 1.4449 | 1.4423 | 1.4397 | 1.4371
x2 = 0.7227 | 1.447 | 1.4445 | 1.442 | 1.4395 | 1.437 | 1.4344 | 1.4318
x2 = 0.7936 | 1.4412 | 1.4388 | 1.4363 | 1.4338 | 1.4313 | 1.4288 | 1.4263
x2 = 0.8663 | 1.4354 | 1.433 | 1.4306 | 1.4282 | 1.4257 | 1.4233 | 1.4208
x2 = 0.9319 | 1.43 | 1.4277 | 1.4254 | 1.4231 | 1.4208 | 1.4184 | 1.4161

Cc1ccc(C)cc1 [1,4-dimethylbenzene] + C1COCCO1
refractive index
Settings | 288.15 K | 293.15 K | 298.15 K | 303.15 K | 308.15 K | 313.15 K | 318.15 K
x2 = 0 | 1.4985 | 1.4959 | 1.4933 | 1.4907 | 1.4881 | 1.4855 | 1.483
x2 = 0.0716 | 1.4937 | 1.4911 | 1.4884 | 1.4858 | 1.4831 | 1.4805 | 1.4778
x2 = 0.1445 | 1.4887 | 1.4861 | 1.4834 | 1.4808 | 1.4781 | 1.4754 | 1.4727
x2 = 0.2132 | 1.4839 | 1.4813 | 1.4786 | 1.476 | 1.4733 | 1.4706 | 1.468
x2 = 0.2871 | 1.4787 | 1.4761 | 1.4734 | 1.4708 | 1.4681 | 1.4655 | 1.4628
x2 = 0.3582 | 1.4736 | 1.471 | 1.4684 | 1.4658 | 1.4632 | 1.4606 | 1.458
x2 = 0.4358 | 1.468 | 1.4655 | 1.4629 | 1.4604 | 1.4578 | 1.4552 | 1.4526
x2 = 0.5042 | 1.4629 | 1.4604 | 1.4579 | 1.4554 | 1.4529 | 1.4503 | 1.4478
x2 = 0.5846 | 1.4569 | 1.4544 | 1.452 | 1.4495 | 1.447 | 1.4445 | 1.442
x2 = 0.6543 | 1.4516 | 1.4492 | 1.4467 | 1.4443 | 1.4418 | 1.4394 | 1.4369
x2 = 0.7249 | 1.4462 | 1.4438 | 1.4414 | 1.439 | 1.4365 | 1.4341 | 1.4316
x2 = 0.7923 | 1.441 | 1.4386 | 1.4362 | 1.4338 | 1.4314 | 1.429 | 1.4266
x2 = 0.8623 | 1.4355 | 1.4332 | 1.4309 | 1.4286 | 1.4262 | 1.4238 | 1.4214
x2 = 0.9311 | 1.4301 | 1.4279 | 1.4256 | 1.4234 | 1.4211 | 1.4188 | 1.4165

Cc1ccccc1C [1,2-dimethylbenzene] + C1COCCO1
refractive index
Settings | 288.15 K | 293.15 K | 298.15 K | 303.15 K | 308.15 K | 313.15 K | 318.15 K
x2 = 0 | 1.5083 | 1.5055 | 1.5029 | 1.5002 | 1.4975 | 1.4948 | 1.4921
x2 = 0.0672 | 1.5029 | 1.5001 | 1.4974 | 1.4946 | 1.4918 | 1.489 | 1.4862
x2 = 0.1391 | 1.4972 | 1.4944 | 1.4917 | 1.4889 | 1.4861 | 1.4833 | 1.4804
x2 = 0.2103 | 1.4914 | 1.4886 | 1.4858 | 1.4831 | 1.4803 | 1.4775 | 1.4746
x2 = 0.2853 | 1.4853 | 1.4825 | 1.4798 | 1.4771 | 1.4743 | 1.4715 | 1.4687
x2 = 0.3543 | 1.4796 | 1.4769 | 1.4742 | 1.4714 | 1.4687 | 1.4659 | 1.4632
x2 = 0.4293 | 1.4734 | 1.4707 | 1.4681 | 1.4654 | 1.4627 | 1.46 | 1.4573
x2 = 0.5092 | 1.4667 | 1.4641 | 1.4615 | 1.4589 | 1.4562 | 1.4535 | 1.4509
x2 = 0.581 | 1.4606 | 1.458 | 1.4554 | 1.4528 | 1.4502 | 1.4476 | 1.445
x2 = 0.6518 | 1.4545 | 1.452 | 1.4495 | 1.4469 | 1.4444 | 1.4418 | 1.4392
x2 = 0.7248 | 1.4482 | 1.4457 | 1.4433 | 1.4408 | 1.4383 | 1.4357 | 1.4332
x2 = 0.7888 | 1.4427 | 1.4402 | 1.4378 | 1.4354 | 1.4329 | 1.4304 | 1.4279
x2 = 0.8595 | 1.4365 | 1.4342 | 1.4318 | 1.4295 | 1.4271 | 1.4246 | 1.4221
x2 = 0.9298 | 1.4305 | 1.4282 | 1.4259 | 1.4236 | 1.4213 | 1.419 | 1.4166
